Measured values as given in article PMC7016953 (Cells, 2020).

Tests used:
rTRPV2-YFP = test system: T1, rTRPV2-YFP; assay: Selectivity profiling, fluo-4 [Ca2+]i response, TRPV2; format: cell-based, rat
T1 construct: expressed in transfected cells
Protocol: (§1) Human embryonic kidney 293 (HEK293) cells were stably transfected with expression plasmids that encode hTRPC3-YFP, hTRPC6-YFP, hTRPC7-YFP, mTRPC4ß-YFP, rTRPV1-CFP, rTRPV2-YFP, rTRPV3-YFP, mTRPV4-YFP, or hTRPM2 as previously described. Cell lines were cultured in Earle’s minimum essential medium (MEM; Sigma, Munich, Germany), supplemented with 10% fetal calf serum (Gibco Thermo Fisher Scientific, Darmstadt, Germany), 2 mM L-glutamine, and required concentrations of geneticin in a range of 0.4–1 mg/mL. A HEK293mTRPC5-YFP cell line was maintained and induced as described before. […] For electrophysiological and single cell [Ca^2+]i imaging experiments, PC12 cells were plated onto 25 mm poly-L-lysine-coated glass coverslips and measured 24–48 h after seeding. […]
(§2) The primary compound screen and the generation of concentration response curves in HEK293 cells or in PC12 cells were performed by using a custom-made fluorescence plate imager built into a robotic liquid handling station equipped with a 96-tip multichannel head (Freedom Evo 150, Tecan, Männedorf, Switzerland) as described previously. […] Plates were mounted on the imager, and fluorescence signals were recorded with a cooled Zyla 5.5 camera (Andor, Belfast, UK) through a 515 nm long pass filter. […] When inhibitory potencies were evaluated, a second pipetting step with the respective reference agonist was performed. […]

TRPC7 = test system: T2, TRPC7; assay: Microfluorometric single-cell [Ca2+]i analysis, fura-2-loaded HEK cells stably expressing TRPC7; format: cell-based, human; details: 50 µM
T2 construct: expressed in transfected cells
Protocol: The microfluorometric single-cell [Ca^2+]i analysis was performed on an inverted epifluorescence microscope (Carl Zeiss, Jena, Germany) and calibrated as described. Cells were grown on 25 mm coverslips and loaded with 4 µM fura-2/AM (AAT Bioquest, Sunnyvale, CA, U.S.A.) in HBS containing 0.2% BSA for 30 min at 37 °C. […] Experiments were performed either in standard bath solution, containing 1 mM Ca^2+ (black lines and bars), or in a nominally Ca^2+-free HBS buffer, supplemented with 200 µM EGTA (grey lines and bars). Time courses of averaged responses (left), and statistical analysis of 6–11 independent imaging experiments with means and S.D. (right) are shown. Significant differences (p < 0.05, Student´s t-test with paired data: #, with unpaired data: *) are marked for the indicated comparisons; n.s.: difference is statistically not significant.

[1] = test system: human protein kinase C (PKC) ε; assay: Plasma membrane translocation of PKCε-YFP fusion protein; format: cell-based; details: 50 µM
mouse TRPC3 ortholog = test system: T3, mouse TRPC3 ortholog; assay: Single-cell [Ca2+]i analysis, fura-2-loaded HEK293 cells transiently overexpressing mouse TRPC3; format: cell-based; details: 50 µM, mean and S.D., n = 215 single cells; basal 311 ± 134 nM
T3 construct: expressed in transfected cells; host or cells: HEK293, transient
Protocol: The microfluorometric single-cell [Ca^2+]i analysis was performed on an inverted epifluorescence microscope (Carl Zeiss, Jena, Germany) and calibrated as described. Cells were grown on 25 mm coverslips and loaded with 4 µM fura-2/AM (AAT Bioquest, Sunnyvale, CA, U.S.A.) in HBS containing 0.2% BSA for 30 min at 37 °C. After gently rinsing the coverslips with HBS, coverslips were mounted in a bath chamber and superfused with HBS containing 0.035% BSA.

mTRPC5-YFP = test system: T4, mTRPC5-YFP; assay: Selectivity profiling, fluo-4 [Ca2+]i response, TRPC5; format: cell-based, mouse; details: 100 µM
T4 construct: expressed in transfected cells
Protocol: as §1, §2

rTRPV3-YFP = test system: T5, rTRPV3-YFP; assay: Selectivity profiling, fluo-4 [Ca2+]i response, TRPV3; format: cell-based, rat; details: 100 µM
T5 construct: expressed in transfected cells
Protocol: as §1, §2

C[C@@H]1CC[C@H]2[C@@H](C)C(=O)O[C@@H]3O[C@@]4(C)CC[C@@H]1[C@]32OO4 [artemisinin]
[Ca2+]i response, TRPV2 (rTRPV2-YFP; 100 µM): none of the cell lines responded
response of TRPV2-expressing cells to 2-APB after artemisinin (rTRPV2-YFP; 100 µM artemisinin, 2-APB final concentration 300 µM): slightly increased response
[Ca2+]i signal in TRPC7-expressing cells in Ca2+-free bath (TRPC7; nominally Ca2+-free HBS with 200 µM EGTA): abolished
[Ca2+]i response in TRPC7-overexpressing cells (TRPC7; standard bath 1 mM Ca2+): only a weak [Ca^2+]i signal
plasma membrane translocation of PKCε-YFP [1]: did not induce a discernible plasma membrane translocation
[Ca2+]i reached after stimulation (mouse TRPC3 ortholog): 1140 ± 635 nM
[Ca2+]i response, TRPC5 (mTRPC5-YFP): none of the cell lines responded
[Ca2+]i response, TRPV3 (rTRPV3-YFP): none of the cell lines responded
